Measured values reported in patent publication US11253509B2, “Methods of treatment for cystic fibrosis” (Vertex Pharmaceuticals Incorporated, priority 2017, dated 2022).
“Also recorded” adds a separate entry of the source.

Legend:
[1] = Compound I monotherapy safety in healthy subjects; assay type: in vivo, human; settings: multiple doses up to 400 mg qd for 10 days
[2] = Preclinical reproductive toxicology studies; assay type: in vivo
F508del-CFTR [3] = biological target: T1, F508del-CFTR (Homo sapiens, UniProt P13569, DEL508-508); test: Membrane potential optical assay (F508del-CFTR correction); assay type: cell-based; set-up: expressed in transfected cells; settings: NIH3T3 mouse fibroblasts stably expressing F508del, 18-24 hours
From the text: Membrane Potential Optical Methods for Assaying Properties of F508del-CFTR Modulators
An optical assay was employed to measure changes in membrane potential to determine the CFTR modulator properties of compounds. The assay utilized fluorescent voltage sensing dyes to measure changes in membrane potential using a fluorescent plate reader (e.g., FLIPR III, Molecular Devices, Inc.) as a readout for increase in functional F508del in NIH 3T3 cells. The driving force for the response was the creation of a chloride ion gradient in conjunction with channel activation and concurrent with compound treatment by a single liquid addition step after the cells had previously been loaded with a voltage sensing dye.
NIH3T3 mouse fibroblasts stably expressing F508del were used for optical measurements of membrane potential. The cells were maintained at 37° C. in 5% CO2 and 90% humidity in Dulbecco's modified Eagle's medium supplemented with 2 mM glutamine, 10% fetal bovine serum, 1×NEAA, β-ME, 1× pen/strep, and 25 mM HEPES in 175 cm^2 culture flasks. […] The cells were then activated and treated with Compound I. After 18-24 hours, fluorescence from the voltage sensing dye in the cells was measured to assess changes in the membrane potential as a read out for increase in functional F508del CFTR in the NIH3T3 cells.

F508del-CFTR [4] = biological target: T1, F508del-CFTR; test: Ussing chamber assay, chloride transport in F508del/F508del-HBE cells; assay type: cell-based; set-up: CF-HBE cells were isolated from patients homozygous for F508del (F508del/F508del-HBE); endogenous in cells; host or cells: primary F508del/F508del-HBE cells from bronchial tissue of CF patients
Experimental: Ussing chamber experiments were performed on polarized airway epithelial cells expressing F508del to further characterize the F508del modulators identified in the optical assay above. Non-CF and CF airway epithelia were isolated from bronchial tissue, cultured using methods well known in the art, and plated onto Costar® Snapwell™ filters that were precoated with NIH3T3-conditioned media. After four days the apical media was removed and the cells were grown at an air liquid interface for >14 days prior to use. […] CF-HBE cells were isolated from patients homozygous for F508del (F508del/F508del-HBE) or heterozygous for F508del and a mutation associated with minimal CF transmembrane conductance regulator (CFTR) function (MF) that is not expected to respond to Compound II, Compound III, Compound III-d, and the combination of Compound II and III, or Compound II and III-d (F508del/MF-HBE).
HBE cells grown on Costar® Snapwell™ cell culture inserts were mounted in an Ussing chamber (Physiologic Instruments, Inc., San Diego, Calif.), and the transepithelial resistance and short-circuit current in the presence of a basolateral to apical Cl^− gradient (ISC) were measured using a voltage-clamp system (Department of Bioengineering, University of Iowa, Iowa). Briefly, HBE cells were examined under voltage-clamp recording conditions (Vhold=0 mV) at 37° C. The basolateral solution contained (in mM) 145 NaCl, 0.83 K2HPO4, 3.3 KH2PO4, 1.2 MgCl2, 1.2 CaCl2, 10 Glucose, 10 HEPES (pH adjusted to 7.35 with NaOH) and the apical solution contained (in mM) 145 NaGluconate, 1.2 MgCl2, 1.2 CaCl2, 10 glucose, 10 HEPES (pH adjusted to 7.35 with NaOH).
Ussing Chamber Assay Procedure
A basolateral to apical membrane Cl^− concentration gradient was set up as follows. Normal Ringer's solution was used on the basolateral membrane, whereas apical NaCl was replaced by equimolar sodium gluconate (titrated to pH 7.4 with NaOH) to give a large Cl^− concentration gradient across the epithelium. […] Chloride current was measured to assess the increase in functional CFTR in the cell membrane. […]

F508del-CFTR [5] = biological target: T1, F508del-CFTR; test: F508del-CFTR processing and trafficking (170 to 180 kDa band) in F508del/F508del-HBE cells; assay type: cell-based; set-up: CF-HBE cells were isolated from patients homozygous for F508del (F508del/F508del-HBE); endogenous in cells; host or cells: primary F508del/F508del-HBE cells from bronchial tissue of CF patients
From the text: The CFTR protein delivered to the cell surface by Compound I alone or in combination with Compound II (Compound I/Compound II) was potentiated by Compound III.

CFTR = biological target: T2, CFTR (Homo sapiens, UniProt P13569, DEL508-508); test: CFTR chloride transport in human bronchial epithelial (HBE) cells in vitro (Example 7); assay type: cell-based
T2 construct: In human bronchial epithelial (HBE) cells studied in vitro; endogenous in cells; host or cells: human bronchial epithelial (HBE) cells
T2 sequence (P13569 with tags, fused parts or gaps DEL508-508): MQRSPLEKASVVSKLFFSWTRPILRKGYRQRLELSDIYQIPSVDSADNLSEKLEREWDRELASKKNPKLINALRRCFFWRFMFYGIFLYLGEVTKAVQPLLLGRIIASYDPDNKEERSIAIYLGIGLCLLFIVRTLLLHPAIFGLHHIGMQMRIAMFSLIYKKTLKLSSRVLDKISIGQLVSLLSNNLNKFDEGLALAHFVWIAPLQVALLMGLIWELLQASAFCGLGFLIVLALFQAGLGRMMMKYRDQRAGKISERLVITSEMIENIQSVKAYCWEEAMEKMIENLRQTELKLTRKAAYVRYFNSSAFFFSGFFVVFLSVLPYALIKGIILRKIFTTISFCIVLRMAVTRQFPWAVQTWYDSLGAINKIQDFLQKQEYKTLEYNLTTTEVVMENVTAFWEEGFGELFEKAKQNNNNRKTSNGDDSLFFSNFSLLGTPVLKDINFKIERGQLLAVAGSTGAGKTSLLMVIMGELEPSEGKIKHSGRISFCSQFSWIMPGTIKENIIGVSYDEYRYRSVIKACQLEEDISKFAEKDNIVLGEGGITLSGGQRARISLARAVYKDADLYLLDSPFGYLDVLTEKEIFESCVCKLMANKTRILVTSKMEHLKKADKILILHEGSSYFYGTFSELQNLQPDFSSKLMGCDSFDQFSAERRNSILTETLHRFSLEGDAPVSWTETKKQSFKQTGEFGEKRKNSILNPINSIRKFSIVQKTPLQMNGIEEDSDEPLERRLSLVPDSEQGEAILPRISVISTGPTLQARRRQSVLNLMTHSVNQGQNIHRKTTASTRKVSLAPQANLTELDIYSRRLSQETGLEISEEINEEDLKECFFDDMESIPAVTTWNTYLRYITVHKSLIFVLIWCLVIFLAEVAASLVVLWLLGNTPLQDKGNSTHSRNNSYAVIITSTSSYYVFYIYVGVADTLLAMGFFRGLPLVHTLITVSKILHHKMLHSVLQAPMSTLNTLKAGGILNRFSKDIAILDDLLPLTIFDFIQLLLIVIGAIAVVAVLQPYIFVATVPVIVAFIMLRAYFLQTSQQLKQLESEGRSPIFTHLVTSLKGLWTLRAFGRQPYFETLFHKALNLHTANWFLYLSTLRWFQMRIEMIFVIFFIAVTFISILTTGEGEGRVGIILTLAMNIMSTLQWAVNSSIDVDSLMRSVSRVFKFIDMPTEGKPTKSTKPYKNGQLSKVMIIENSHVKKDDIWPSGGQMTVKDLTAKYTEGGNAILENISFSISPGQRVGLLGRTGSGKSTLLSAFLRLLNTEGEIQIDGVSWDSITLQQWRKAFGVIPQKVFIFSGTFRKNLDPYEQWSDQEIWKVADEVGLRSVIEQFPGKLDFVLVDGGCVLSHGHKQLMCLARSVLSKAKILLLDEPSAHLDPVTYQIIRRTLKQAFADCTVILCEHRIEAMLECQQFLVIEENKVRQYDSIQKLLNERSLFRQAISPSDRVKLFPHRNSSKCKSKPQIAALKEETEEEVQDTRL

T1 sequence (P13569 with tags, fused parts or gaps DEL508-508): as above

EC50 (F508del-CFTR [3]) [µM] | Emax (F508del-CFTR [3]; read-out: % Efficacy relative to Compound II) [%] | chloride transport (F508del-CFTR [4]) | effect on chloride transport in relation to the effect of Compound II (F508del-CFTR [4]) | steady-state levels, fold of untreated levels (F508del-CFTR [5]; F508del/F508del-HBE cells, 16 to 24 hours, 1 μM Compound I alone) [fold] | potentiation of CFTR protein delivered to the cell surface by Compound I alone or with Compound II (CFTR) | potentiation of F508del-CFTR delivered to the cell surface by Compound I alone or with Compound II (F508del-CFTR [4]) | Compound | safety and tolerability [1] | reproductive toxicology findings [2] | processing and trafficking of F508del-CFTR (F508del-CFTR [5]; in vitro)
< 3 | ≥ 100 | enhanced chloride transport | additive to the effect of Compound II | 6.5 |  |  | C[C@@H]1CN(c2nc(-n3ccc(OCCC4(C(F)(F)F)CC4)n3)ccc2C(=O)NS(=O)(=O)c2ccccc2)C(C)(C)C1 [Compound I, N-(benzenesulfonyl)-6-[3-[2-[1-(trifluoromethyl)cyclopropyl]ethoxy]pyrazol-1-yl]-2-[(4(S))-2,2,4-trimethylpyrrolidin-1-yl]pyridine-3-carboxamide] | safe and well tolerated | no adverse findings of note | improved the processing and trafficking of F508del-CFTR; also recorded: facilitates the processing and trafficking of F508del-CFTR
 |  |  |  |  | potentiated | potentiated | CC(C)(C)c1cc(C(C)(C)C)c(NC(=O)c2c[nH]c3ccccc3c2=O)cc1O [Compound III, N-(5-hydroxy-2,4-di-tert-butyl-phenyl)-4-oxo-1H-quinoline-3-carboxamide, reference compound] |  |  | 
